We go through ten compounds from ChEMBL document CHEMBL1201862, “PubChem BioAssay data set” (2004).

Test in all cases: NCI-60 cell line screen, 48 h
Experiment [1] has as its system 786-0.
The test system of experiment [2] is DMS-114.
Experiment [3] deals with HCC 2998.
The test system of experiment [4] is HCT-15.
The subject of experiment [5] is HL-60.
The subject of experiment [6] is HT-29.
Experiment [7] deals with M14.
The test system of experiment [8] is NCI-H226.
Experiment [9] relates to NCI-H460.
The test system of experiment [10] is NCI-H522.
The test system of experiment [11] is OVCAR-3.
Experiment [12] deals with OVCAR-4.
The subject of experiment [13] is OVCAR-5.
The test system of experiment [14] is OVCAR-8.
Experiment [15] deals with SF-268.
Experiment [16] deals with SR.
The test system of experiment [17] is U-251.
Experiment [18] concerns UACC-62.
Experiment [19] deals with UO-31.

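Test compounds were applied to cells in 96-well plates for 48 hours at 5 doses. GI50 marks 50% less growth.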 Active and inactive are the calls of the source. Rule as the data show it: active = GI50 up to about 1.1 µM and inactive = higher.

On to `CCOC(=O)C1=C(NC(C)(C)C)OC/C1=N\NC(=O)Cc1ccccc1`, for which the GI50 in experiment [1] is > 100 µM (inactive); in experiment [2] it was > 100 µM (inactive); in [3], > 100 µM (inactive); in experiment [4], over 100 µM; in experiment [5] it was > 100 µM (inactive); in experiment [6] it was > 100 µM (inactive). Further, the GI50 in experiment [7], in [8], in experiment [9], in experiment [10], in experiment [11] and in [12] was > 100 µM (inactive) throughout. The GI50 in experiment [13], in experiment [14], in experiment [15], in experiment [16], in experiment [17] and in [18] was > 100 µM (inactive) in each case. In addition, the GI50 in experiment [19] was > 100 µM (inactive).

Take `O=C(NCc1ccc2ccc3cccnc3c2n1)c1ccc[n+](Cc2ccccc2)c1`: the GI50 in experiment [1] was > 100 µM (inactive); in experiment [2] it was 36.8 µM (inactive); in [3], > 100 µM (inactive); in [4], over 100 µM; in experiment [5] it was > 100 µM (inactive); in experiment [6] it was 98.6 µM (inactive). For the same compound, the GI50 is > 100 µM (inactive) in experiment [7]; > 100 µM (inactive) in [8]; > 100 µM (inactive) in [9]; > 100 µM (inactive) in [10]; 55.6 µM (inactive) in experiment [11]; > 100 µM (inactive) in experiment [12]. Besides, the GI50 in experiment [13], in experiment [14], in experiment [15], in [16], in experiment [17] and in [18] was > 100 µM (inactive) each time. The GI50 in [19] is > 100 µM (inactive).

On to `CCOC(=O)CC(NCc1ccc(/N=C/c2nc3ccc(C(F)(F)F)cc3nc2-c2ccccc2)cc1)C(=O)OCC` (centres undefined), for which the GI50 is 15.3 µM (inactive) in experiment [1]; > 68.5 µM (inactive) in [2]; 27 µM (inactive) in [3]; over 100 µM in experiment [4]; > 100 µM (inactive) in experiment [5]; > 100 µM (inactive) in [6]. In addition, the GI50 in [7] is > 80.7 µM (inactive); in experiment [8], > 100 µM (inactive); in experiment [9], > 100 µM (inactive); in experiment [10], > 100 µM (inactive); in [11] it was > 100 µM (inactive); in experiment [12] it was > 100 µM (inactive). The GI50 in experiment [13] is > 100 µM (inactive); in experiment [14], > 100 µM (inactive); in experiment [15], > 100 µM (inactive); in [16], > 100 µM (inactive); in [17], 21.8 µM (inactive); in experiment [18] it was 13.7 µM (inactive). The GI50 in [19] is > 100 µM (inactive).

For the compound `COc1ccccc1OCc1nnc(SCC(=O)O)n1-c1ccccc1`, the GI50 in experiment [1] was > 100 µM (inactive); in experiment [2] it was > 100 µM (inactive); in [3] it was > 100 µM (inactive); in experiment [4], over 100 µM; in [5], > 100 µM (inactive); in experiment [6] it was > 100 µM (inactive). For the same compound, the GI50 in [7], in experiment [8], in experiment [9], in experiment [10], in [11] and in [12] was > 100 µM (inactive) throughout. The GI50 in experiment [13], in experiment [14], in [15], in experiment [16], in [17] and in experiment [18] was > 100 µM (inactive) each time. Moreover, in experiment [19], the GI50 was > 100 µM (inactive).

Regarding `COC(=O)C(=O)C(C(=O)C(=O)Nc1cccc(C(C)=O)c1)c1nc2ccc([N+](=O)[O-])cc2nc1O` (centres undefined), the GI50 in experiment [1] was > 100 µM (inactive); in experiment [2] it was > 100 µM (inactive); in experiment [3], > 100 µM (inactive); in experiment [4], over 100 µM; in [5], 80 µM (inactive); in experiment [6], > 100 µM (inactive). In addition, the GI50 in [7], in experiment [8], in [9], in [10], in experiment [12] and in [13] was > 100 µM (inactive) throughout. Further, the GI50 in [14], in experiment [15], in [16], in experiment [17], in experiment [18] and in experiment [19] was > 100 µM (inactive) each time.

In the case of `C[N+](C)(C)CC(=O)N/N=C(\C(=O)NC1=C(Cl)C(=O)c2ccccc2C1=O)C(C#N)c1csc(-c2ccc([N+](=O)[O-])cc2)n1` (centres undefined), the GI50 in [1] is > 100 µM (inactive); in [2], > 100 µM (inactive); in experiment [3], > 100 µM (inactive); in experiment [4], over 100 µM; in [5], > 100 µM (inactive); in experiment [6] it was > 100 µM (inactive). Further, the GI50 in experiment [7], in experiment [8], in [9], in experiment [10], in experiment [11] and in experiment [12] was > 100 µM (inactive) each time. Moreover, the GI50 in experiment [13] is > 100 µM (inactive); in experiment [14], > 100 µM (inactive); in experiment [15], > 100 µM (inactive); in [16], 80.5 µM (inactive); in [17] it was > 100 µM (inactive); in [18] it was > 100 µM (inactive). Further, the GI50 in experiment [19] was > 100 µM (inactive).

Consider `O=C(Nc1ccc(C(F)(F)F)cc1[N+](=O)[O-])C(=O)C1NC(=S)NC1=O` (centres undefined), for which the GI50 in experiment [1] was > 100 µM (inactive); in experiment [2], > 100 µM (inactive); in experiment [3], > 100 µM (inactive); in experiment [4] it was over 100 µM; in experiment [5] it was > 100 µM (inactive); in experiment [6], > 100 µM (inactive). In addition, the GI50 was > 100 µM (inactive) in experiment [7]; 11 µM (inactive) in [8]; > 100 µM (inactive) in [9]; > 100 µM (inactive) in [10]; > 100 µM (inactive) in [11]; > 100 µM (inactive) in experiment [12]. Moreover, the GI50 in experiment [13], in [14], in [15], in experiment [16], in experiment [17] and in experiment [18] was > 100 µM (inactive) each time. In addition, the GI50 in [19] is > 100 µM (inactive).

Regarding `CN/N=C(/CC(=O)c1sc(NNC(C)=O)nc1C)C(=O)Nc1ccc(OC)cc1OC`, the GI50 was > 100 µM (inactive) in [1]; > 100 µM (inactive) in experiment [2]; > 100 µM (inactive) in experiment [3]; over 100 µM in experiment [4]; > 100 µM (inactive) in experiment [5]; > 100 µM (inactive) in experiment [6]. Also, the GI50 in experiment [7], in [8], in experiment [9], in experiment [10], in experiment [11] and in experiment [12] was > 100 µM (inactive) each time. The GI50 in experiment [13], in experiment [14], in [15], in experiment [16], in experiment [17] and in [18] was > 100 µM (inactive) throughout. The GI50 in experiment [19] is > 100 µM (inactive).

`Cc1ccc(C(O)/C(=N/N)c2nc3ccc([N+](=O)[O-])cc3nc2O)cc1` (centres undefined): the GI50 in [1] was > 100 µM (inactive); in experiment [2], 33.9 µM (inactive); in [3], 4.66 µM (inactive); in [4] it was 28 µM; in experiment [5], 27 µM (inactive); in experiment [6], > 100 µM (inactive). Further, the GI50 in [7] is > 100 µM (inactive); in experiment [8] it was > 100 µM (inactive); in experiment [9], > 100 µM (inactive); in [10] it was 17.8 µM (inactive); in experiment [11], > 100 µM (inactive); in [12] it was > 100 µM (inactive). Moreover, the GI50 in [13] was > 100 µM (inactive); in [14], > 100 µM (inactive); in experiment [15] it was 74.6 µM (inactive); in experiment [16], 58.7 µM (inactive); in experiment [17] it was > 100 µM (inactive); in experiment [18] it was 46.8 µM (inactive). The GI50 in experiment [19] is 45.4 µM (inactive).

As for `C=C1C(=O)OC2/C=C(\C)C(O)/C=C\C(C)(O)CC(OC(=O)/C(C)=C/C)C12` (centres undefined), the GI50 in [1] is 20.8 µM (inactive); in experiment [2] it was > 48 µM (inactive); in experiment [3], > 100 µM (inactive); in experiment [4], 17.2 µM; in experiment [5], 7.91 µM (inactive); in [6] it was 33.1 µM (inactive). The GI50 is 17.3 µM (inactive) in experiment [7]; > 100 µM (inactive) in [8]; > 61 µM (inactive) in experiment [9]; 12.8 µM (inactive) in [10]; 9.93 µM (inactive) in [11]; 44.6 µM (inactive) in experiment [12]. In addition, the GI50 in experiment [13] is > 100 µM (inactive); in [14], 22.1 µM (inactive); in experiment [15] it was 76.9 µM (inactive); in [16] it was 11.7 µM (inactive); in experiment [17] it was > 67.8 µM (inactive); in experiment [18] it was 17.1 µM (inactive). In addition, the GI50 in [19] was > 70.1 µM (inactive).
